Measured values taken from ChEMBL document CHEMBL5584314, “Identification of an m6A Natural Inhibitor, Lobeline, That Reverses Lenvatinib Resistance in Hepatocellular Tumors” (J Nat Prod, 2024).
Calls of active or inactive are those of the source. No cut-off for these calls is given here.

Assays:
[1] = system: Lenvatinib-resistant Huh7/Len; test: Antiproliferative activity against human Lenvatinib-resistant Huh7/Len cells assessed as inhibition of cell viability up to 40 uM after 72 hrs in presence of lobeline by CCK-8 assay; assay type: functional, cell-based
[2] = system: Lenvatinib-resistant Hep3B/Len; test: Antiproliferative activity against human Lenvatinib-resistant Hep3B/Len cells assessed as inhibition of cell viability up to 40 uM after 72 hrs in presence of lobeline by CCK-8 assay; assay type: functional, cell-based
[3] = system: Lenvatinib-resistant Huh7/Len; test: Antiproliferative activity against human Lenvatinib-resistant Huh7/Len cells assessed as inhibition of clone formation ability at 5 to 10 uM preincubated for 72 hrs and measured after 7 to 10 days by crystal violet staining based assay; assay type: functional, cell-based; settings: dose 5-10 µM, time 10-13 day
[4] = system: Lenvatinib-resistant Hep3B/Len; test: Antiproliferative activity against human Lenvatinib-resistant Hep3B/Len cells assessed as inhibition of clone formation ability at 5 to 10 uM preincubated for 72 hrs and measured after 7 to 10 days by crystal violet staining based assay; assay type: functional, cell-based; settings: dose 5-10 µM, time 10-13 day
[5] = system: Lenvatinib-resistant Huh7/Len; test: Antiproliferative activity against human Lenvatinib-resistant Huh7/Len cells assessed as inhibition of clone formation ability at 5 to 10 uM preincubated for 72 hrs and measured after 7 to 10 days in presence of lobeline by crystal violet staining based assay; assay type: functional, cell-based; settings: dose 5-10 µM, time 10-13 day
[6] = system: Lenvatinib-resistant Hep3B/Len; test: Antiproliferative activity against human Lenvatinib-resistant Hep3B/Len cells assessed as inhibition of clone formation ability at 5 to 10 uM preincubated for 72 hrs and measured after 7 to 10 days in presence of lobeline by crystal violet staining based assay; assay type: functional, cell-based; settings: dose 5-10 µM, time 10-13 day
[7] = system: Lenvatinib-resistant Huh7/Len; test: Inhibition of cell migration in human Lenvatinib-resistant Huh7/Len cells at 5 uM incubated for 48 hrs by transwell assay; assay type: functional, cell-based
[8] = system: Lenvatinib-resistant Hep3B/Len; test: Inhibition of cell migration in human Lenvatinib-resistant Hep3B/Len cells at 5 uM incubated for 48 hrs by transwell assay; assay type: functional, cell-based
[9] = system: Lenvatinib-resistant Huh7/Len; test: Inhibition of cell migration in human Lenvatinib-resistant Huh-7/Len cells at 5 uM incubated for 48 hrs in presence of lobeline by transwell assay relative to control; assay type: functional
[10] = system: Lenvatinib-resistant Hep3B/Len; test: Inhibition of cell migration in human Lenvatinib-resistant Hep3B/Len cells at 5 uM incubated for 48 hrs in presence of lobeline by transwell assay relative to control; assay type: functional
[11] = system: Lenvatinib-resistant Huh7/Len; test: Antitumor activity against human Lenvatinib-resistant Huh7/Len cells xenografted in BALB/c nude mouse assessed as tumor growth inhibition at 3 mg/kg, IG cotreated with lobeline 5 times per week for 3 weeks; assay type: functional, organism-based
[12] = system: Lenvatinib-resistant Huh7/Len; test: Antitumor activity against human Lenvatinib-resistant Huh7/Len cells xenografted in BALB/c nude mouse assessed as inhibition of tumor volume at 3 mg/kg, IG cotreated with lobeline 5 times per week for 3 weeks relative to control; assay type: functional; settings: po, 504 h
[13] = Toxicity in BALB/c nude mouse xenografted with human Lenvatinib-resistant Huh7/Len cells assessed as changes in body weight at 3 mg/kg, IG administered 5 times per week for 3 weeks; assay type: organism-based; settings: in vivo, po, 504 h
[14] = Toxicity in BALB/c nude mouse xenografted with human Lenvatinib-resistant Huh7/Len cells assessed as changes in organ index at 3 mg/kg, IG administered 5 times per week for 3 weeks; assay type: organism-based; settings: in vivo, po, 504 h
[15] = Toxicity in BALB/c nude mouse xenografted with human Lenvatinib-resistant Huh7/Len cells assessed as changes in body weight at 3 mg/kg, IG cotreated with lobeline 5 times per week for 3 weeks; assay type: organism-based; settings: in vivo, po, 504 h
[16] = Toxicity in BALB/c nude mouse xenografted with human Lenvatinib-resistant Huh7/Len cells assessed as changes in organ index at 3 mg/kg, IG cotreated with lobeline 5 times per week for 3 weeks; assay type: organism-based; settings: in vivo, po, 504 h
[17] = system: Lenvatinib-resistant Huh7/Len; test: Antitumor activity against human Lenvatinib-resistant Huh7/Len cells xenografted in BALB/c nude mouse assessed as reduction in Ki-67 protein expression tumor tissue at 3 mg/kg, IG cotreated with lobeline 5 times per week for 3 weeks by immunohistochemistry analysis; assay type: functional; set-up: scale not given: the % may be the effect or the level left
[18] = system: Lenvatinib-resistant Huh7/Len; test: Induction of apoptosis in human Lenvatinib-resistant Huh7/Len cells xenografted in BALB/c nude mouse assessed as apoptotic cells in tumor tissue at 3 mg/kg, IG cotreated with lobeline 5 times per week for 3 weeks by immunohistochemistry analysis; assay type: functional, organism-based
[19] = system: Lenvatinib-resistant HCC/Len; test: Antitumor activity against human Lenvatinib-resistant HCC/Len cells xenografted in BALB/c nude mouse model of PDX assessed as tumor growth inhibition at 3 mg/kg, IG cotreated with lobeline 5 times per week for 3 weeks; assay type: functional, organism-based
[20] = system: Lenvatinib-resistant HCC/Len; test: Antitumor activity against human Lenvatinib-resistant HCC/Len cells xenografted in BALB/c nude mouse model of PDX assessed as inhibition of tumor volume at 3 mg/kg, IG cotreated with lobeline 5 times per week for 3 weeks relative to control; assay type: functional; settings: po, 504 h
[21] = Toxicity in BALB/c nude mouse PDX model xenografted with human Lenvatinib-resistant HCC/Len cells assessed as changes in body weight at 3 mg/kg, IG administered 5 times per week for 3 weeks; assay type: organism-based; settings: in vivo, po, 504 h
[22] = Toxicity in BALB/c nude mouse PDX model xenografted with human Lenvatinib-resistant HCC/Len cells assessed as changes in organ index at 3 mg/kg, IG administered 5 times per week for 3 weeks; assay type: organism-based; settings: in vivo, po, 504 h
[23] = Toxicity in BALB/c nude mouse PDX model xenografted with human Lenvatinib-resistant HCC/Len cells assessed as changes in body weight at 3 mg/kg, IG cotreated with lobeline 5 times per week for 3 weeks administered 5 times per week for 3 weeks; assay type: organism-based; settings: in vivo, po, 504 h
[24] = Toxicity in BALB/c nude mouse PDX model xenografted with human Lenvatinib-resistant HCC/Len cells assessed as changes in organ index at 3 mg/kg, IG cotreated with lobeline 5 times per week for 3 weeks administered 5 times per week for 3 weeks; assay type: organism-based; settings: in vivo, po, 504 h
[25] = system: Lenvatinib-resistant HCC/Len; test: Antitumor activity against human Lenvatinib-resistant HCC/Len cells xenografted in BALB/c nude mouse model of PDX assessed as reduction in Ki-67 protein expression tumor tissue at 3 mg/kg, IG cotreated with lobeline 5 times per week for 3 weeks by immunohistochemistry analysis; assay type: functional, organism-based
[26] = system: Lenvatinib-resistant HCC/Len; test: Antitumor activity against human Lenvatinib-resistant HCC/Len cells xenografted in BALB/c nude mouse model of PDX assessed as reduction in m6A protein expression tumor tissue at 3 mg/kg, IG cotreated with lobeline 5 times per week for 3 weeks by immunohistochemistry analysis; assay type: functional, organism-based

COc1cc2nccc(Oc3ccc(NC(=O)NC4CC4)c(Cl)c3)c2cc1C(N)=O [LENVATINIB]
inhibition [1]: Active
inhibition [2]: Active
inhibition [3]: inactive
inhibition [4]: inactive
inhibition [5]: inactive
inhibition [6]: inactive
inhibition [7]: inactive
inhibition [8]: inactive
inhibition at 5 µM [9]: 42%
inhibition at 5 µM [10]: 42%
TGI [11]: Active
inhibition in vivo at 3 mg/kg [12]: 68%
Activity [13]: Non-Toxic
Activity [14]: Non-Toxic
Activity [15]: Non-Toxic
Activity [16]: Non-Toxic
Activity [17]: 30%
Activity [18]: Active
TGI [19]: Active
inhibition in vivo at 3 mg/kg [20]: 60%
Activity [21]: Non-Toxic
Activity [22]: Non-Toxic
Activity [23]: Non-Toxic
Activity [24]: Non-Toxic
Activity [25]: Active
Activity [26]: Active
